Measurements from patent US20220081395A1, “DISULPHIDE COMPOUNDS” (NEEM BIOTECH LIMITED, priority 2019, published 2022).

How the values were obtained:
Assay type in all cases: cell-based
[1] = tested on: Pseudomonas aeruginosa; assay: Minimum Biofilm Inhibition Concentration (MBIC) assay, biofilm formation, crystal violet; settings: IC50 of compound as % of IC50 of ajoene in the same experiment; <100% more effective than ajoene
Procedure: (§1) Compounds were assayed for their ability to inhibit S. aureus or P. aeruginosa biofilm formation as follows.
(§2) All compounds were prepared as a 30 mM stock in DMSO and diluted in tryptic soy broth (TSB) to 48 μM (S. aureus) or 144 μM (P. aeruginosa). The compounds were further serially diluted two-fold from 48 μM to 0.75 μM (S. aureus) or 144 μM to 2.3 μM (P. aeruginosa) and added to a 96-well plate at 100 μl per well. Overnight cultures of bacteria were diluted to an OD600=0.07 in fresh TSB and 100 μl of the diluted bacterial culture was added to the compound containing wells. The bacteria were incubated in the presence of the compounds overnight at 37° C. After incubation, the planktonic bacteria were removed by three washes using H2O and the remaining biofilm was stained using crystal violet and quantified photometrically at A570. Absorbances corresponding to biofilm mass were plotted versus compound concentration and IC50 values were calculated. Reference: O'Toole G A, Microtiter Dish Biofilm Formation Assay J. Vis. Exp (2011).
(§3) MBIC assays of the compounds are carried out alongside ajoene for reference and standardization. The IC50 of ajoene against S. aureus and P.aeruginosa is well-defined and reproducible allowing ajoene to serve as an effective control for the experiment. As such, the IC50 calculated for the tested compounds are compared to the IC50 of ajoene in every experiment and are therefore represented as % of ajoene.

[2] = tested on: Staphylococcus aureus; assay: as above; settings: IC50 of compound as % of IC50 of ajoene in the same experiment; <100% more effective than ajoene
Procedure: as §1, §2, §3

[3] = tested on: S. aureus; assay: Bacterial Exudate Scratch Test (BEST), HaCaT monolayer exposed to S. aureus exudate
Procedure: (§4) Bacterial cultures (S. aureus and P. aeruginosa) were grown prophylactically with test compounds for 24 hours and exudates were collected.
(§5) Microorganisms were prepared by growing in tryptone soy broth (TSB) at 37° C., 150 rpm for 16 hours.
(§6) The exudates were obtained by first placing in a 24-well plate, 1 mL of each compound treated media and vehicle control media in triplicate. 1 mL of untreated TSB was then added to 3 wells for an untreated control and 2 mL TSB was added to 3 wells for sterility control. Except for the sterility control wells, 1 mL of bacterial suspension was added to each well and mixed well. The plate was then incubated in a humidified incubator at 37° C. for 24 hours at 75 rpm. Following the appropriate incubation time, the entire contents of the well were removed and transferred into a sterile centrifuge tube. The tube was then centrifuged at 10,000 rpm for 10 minutes at 4° C. to pellet the biomass. The supernatant was filtered using a Luer Lock […] filter into another sterile tube. The exudate was aliquoted into 500 μl aliquots in 0.5 mL PCR tubes. […]
(§7) The plates were incubated for 20 hours at 37° C., 5% CO2 and images were taken at the time points as required. Scratch ‘size’ was analysed using ImageJ software.
(§8) The rate of cellular proliferation of the HaCaT cells is calculated at 20 hours as a percentage of the initial scratch size at 0 hours.

[4] = tested on: P. aeruginosa; assay: Bacterial Exudate Scratch Test (BEST), HaCaT monolayer exposed to P. aeruginosa exudate
Procedure: as §4, §5, §6, §7, §8

[5] = tested on: P. aeruginosa biofilms; assay: Inhibition of respiration/viability of established biofilms grown in artificial sputum medium (TTZ viability assay), with tobramycin; settings: established 24 h biofilms in ASM, compound 5 hours, then 10 μg/ml tobramycin 16 hours; FIG. 3
Procedure: Compound B was tested for its efficacy to inhibit P. aeruginosa biofilms in artificial sputum medium (ASM) as follows. Overnight cultures of P. aeruginosa were re-seeded to an OD595=0.07 and further diluted 1:100 in ASM and grown for 24 hours at 37° C. to allow for biofilm formation. Compound B was prepared as 30 mM stock in 100% DMSO and established biofilms were treated with the compound at increasing concentrations or left untreated for 5 hours at 37° C. All samples were then treated with 10 μg/ml tobramycin for 16 hours at 37° C. The artificial sputum was liquified using sputasol. The respiratory potential of the biofilms was quantified using a tetrazolium chloride (2,3,5-triphenyl tetrazolium chloride (TTZ)) viability assay.

| Structure (SMILES) | P. aeruginosa MBIC: % of Ajoene positive control IC50 [1] | S. aureus MBIC: % of Ajoene positive control IC50 [2] | further results |
| --- | --- | --- | --- |
| C=CCSSc1ccccc1C[S+]([O-])Cc1ccccc1 (centres unmarked) | 76 % of Ajoene | 89 % of Ajoene |  |
| C=CCSSc1cccc(CS(=O)(=O)Cc2ccccc2)c1 [drawing 83] |  |  | scratch area at 20 hours ([3]; HaCaT exposed to S. aureus exudate pre-treated with test compound (125 pM), vehicle 66% remaining): almost complete closure of the scratch area; effect on inhibition of scratch closure in HaCaT cells ([3]; prophylactic (pre-biofilm) treatment of S. aureus with 125 pM test compound, versus vehicle pre-treatment, FIG. 4): completely rescues the inhibition of scratch closure; scratch area at 20 hours (percentage of initial scratch size at 0 hours) ([4]; HaCaT exposed to P. aeruginosa exudate pre-treated with test compound (250 μM), vehicle 109%, no exudate 9%): 64%; effect on inhibition of scratch closure in HaCaT cells ([4]; prophylactic (pre-biofilm) treatment of P. aeruginosa with 250 μM test compound, versus vehicle pre-treatment, FIG. 5): reduces the inhibition of scratch closure |
| CSSc1cccc(CS(=O)(=O)Cc2ccccc2)c1 [Compound B, 1-(methyldisulfanyl)-3-(phenylmethanesulfonylmethyl)benzene] |  |  | effect on efficacy of tobramycin to inhibit biofilm respiration/viability [5]: enhances the efficacy of tobramycin |
| [O-][S+](Cc1ccccc1)Cc1ccccc1SSCc1ccccc1 (centres unmarked) | 39.9 % of Ajoene | 89 % of Ajoene |  |
| COc1ccc(CSSc2ccccc2C[S+]([O-])Cc2ccccc2)cc1 (centres unmarked) | 58 % of Ajoene | 4 % of Ajoene |  |
| [O-][S+](Cc1ccccc1)Cc1cccc(SSCc2ccc(C(F)(F)F)cc2)c1 (centres unmarked) | 32 % of Ajoene | 34 % of Ajoene |  |
| C=CCSSc1cccc(CS(=O)(=O)Cc2ccccc2)c1 [drawing 76] | 82 % of Ajoene | 5 % of Ajoene |  |

Second part, led by results:

| P. aeruginosa MBIC: % of Ajoene positive control IC50 [1] | S. aureus MBIC: % of Ajoene positive control IC50 [2] | Structure (SMILES) | further results |
| --- | --- | --- | --- |
| 21 % of Ajoene | 62 % of Ajoene | [O-][S+](Cc1ccccc1)Cc1cccc(SSCc2ccccc2)c1 (centres unmarked) |  |
| 35 % of Ajoene | 69 % of Ajoene | O=S(=O)(Cc1ccccc1)Cc1cccc(SSCc2ccc(F)cc2)c1 |  |
| 15 % of Ajoene | 22.5 % of Ajoene | CCC(C)CSSc1cccc(C[S+]([O-])Cc2ccccc2)c1 (centres unmarked) |  |
| 94 % of Ajoene | 11 % of Ajoene | CCC(C)CSSc1cccc(CS(=O)(=O)Cc2ccccc2)c1 (centres unmarked) |  |
| 32 % of Ajoene | 90 % of Ajoene | CC(C)CSSc1cccc(C[S+]([O-])Cc2ccccc2)c1 (centres unmarked) |  |
| 100 % of Ajoene | 22 % of Ajoene | C=CCSSc1cccc(CS(=O)(=O)Cc2ccco2)c1 |  |
| 20 % of Ajoene | 43 % of Ajoene | COc1ccc(CSSc2cccc(C[S+]([O-])Cc3ccccc3)c2)cc1 (centres unmarked) |  |
